Key:
KRAS G12D [1] = biological target: T1, KRAS G12D (Homo sapiens, UniProt P01116, G12D); test: KRAS_G12D GDP-GTP exchange assay (bodipy-GDP/GppNHp, SOS1); format: biochemical; conditions: bodipy-loaded KRAS G12D 2.5 nM, 4 hours pre-incubation, 2 hours exchange; for IC50: read-out: G12D_exchange (KRAS_G12D exchange assay IC50)
Protocol: (§1) The inhibitor potency of the exemplified compounds was determined in a fluorescence based guanine nucleotide exchange assay, which measures the exchange of bodipy-GDP (fluorescently labeled GDP) for GppNHp (Non-hydrolyzable GTP analog) to generate the active state of KRAS in the presence of SOS1 (guanine nucleotide exchange factor). Inhibitors were serially diluted in DMSO and a volume of 0.1 μL was transferred to the wells of a black low volume 384-well plate. 5 μL/well volume of bodipy-loaded KRAS G12D diluted to 2.5 nM in assay buffer (25 mM Hepes pH 7.5, 50 mM NaCl, 10 mM MgCl2 and 0.01% Brij-35) was added to the plate and pre-incubated with inhibitor for 4 hours at ambient temperature. Appropriate controls (enzyme with no inhibitor or with a G12D inhibitor) were included on the plate. The exchange was initiated by the addition of a 5 μL/well volume containing 1 mM GppNHp and 300 nM SOS1 in assay buffer. The 10 μL/well reaction concentration of the bodipy-loaded KRAS G12D, GppNHp, and SOS1 were 2.5 nM, 500 uM, and 150 nM, respectively. The reaction plates were incubated at ambient temperature for 2 hours, a time estimated for complete GDP-GTP exchange in the absence of inhibitor. For the KRAS G12V mutant, similar guanine nucleotide exchange assays were used with 2.5 nM as final concentration for the bodipy loaded KRAS proteins and 3 hours incubation after adding GppNHp-SOS1 mixture. A cyclic peptide described to selectively bind G12D mutant (Sakamoto et al., BBRC 484.3 (2017), 605-611) or internal compounds with confirmed binding were used as positive controls in the assay plates. Fluorescence intensities were measured on a PheraStar plate reader instrument (BMG Labtech) with excitation at 485 nm and emission at 520 nm.
(§2) Either GraphPad prism or XLfit was used to analyze the data. The IC50 values were derived by fitting the data to a four parameter logistic equation producing a sigmoidal dose-response curve with a variable Hill coefficient. Prism equation: Y=Bottom+(Top−Bottom)/(1+10^((Log IC50−X)*Hill slope)); XLfit equation: Y=(A+((B−A)/(1+((X/C)^D)))) where X is the logarithm of inhibitor concentration and Y is the response.

KRAS G12V = KRAS G12V (Homo sapiens, UniProt P01116, G12V); test: KRAS_G12V GDP-GTP exchange assay (bodipy-GDP/GppNHp, SOS1); format: biochemical; conditions: bodipy loaded KRAS G12V 2.5 nM, 3 hours incubation after GppNHp-SOS1; read-out: G12V_exchange (KRAS_G12V exchange assay IC50)
Chain of KRAS G12V (P01116 1-188 isoform P01116-2 G12V): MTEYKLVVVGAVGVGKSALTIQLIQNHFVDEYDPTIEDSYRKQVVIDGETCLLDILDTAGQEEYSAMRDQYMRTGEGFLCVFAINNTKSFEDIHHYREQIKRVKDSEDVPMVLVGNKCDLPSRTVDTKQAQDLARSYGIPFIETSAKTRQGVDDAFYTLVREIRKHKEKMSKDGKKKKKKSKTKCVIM
Protocol: as §1, §2

KRAS G12D [2] = biological target: T1, KRAS G12D; test: KRAS_G12D cellular pERK HTRF assay; format: cell-based; set-up: CRL-1997; host or cells: A427 or HPAF-II; conditions: KRAS G12D cells (A427, HPAF-II), 2 hours; read-out: G12D_pERK (KRAS_G12D pERK assay IC50)
Protocol: MIA PaCa-2 (KRAS G12C; ATCC® CRL-1420), A427 (KRAS G12D; ATCC® HTB53), HPAF-II (KRAS G12D; ATCC® CRL-1997) and NCI-H838 (KRAS WT; ATCC® CRL-5844) cells are purchased from ATCC and maintained in RPMI 1640 media supplemented with 10% FBS (Gibco/Life Technologies). The cells are plated at 5000 cells per well (8 uL) into Greiner 384-well low volume, flat-bottom, tissue culture treated white plates and incubated overnight at 37° C., 5% CO2. The next morning, test compound stock solutions are diluted in media at 3x the final concentration, and 4 uL are added to the cells. The plate is mixed by gentle rotation for 30 seconds (250 rpm) at room temperature. The cells are incubated with the KRAS G12C and G12D compounds for 4 hours or 2 hours respectively at 37° C., 5% CO2.
4 uL of 4x lysis buffer with blocking reagent (1:25) (Cisbio) are added to each well and plates are rotated gently (300 rpm) for 30 minutes at room temperature. 4 uL per well of Cisbio anti Phospho-ERK 1/2 d2 is mixed with anti Phospho-ERK 1/2 Cryptate (1:1) are added to each well, mixed by rotation and incubated overnight in the dark at room temperature. Plates are read on the Pherastar plate reader at 665 nm and 620 nm wavelengths. IC50 determination is performed by fitting the curve of inhibitor percent inhibition versus the log of the inhibitor concentration using the GraphPad Prism 7 software.

T1 sequence (P01116 1-188 isoform P01116-2 G12D): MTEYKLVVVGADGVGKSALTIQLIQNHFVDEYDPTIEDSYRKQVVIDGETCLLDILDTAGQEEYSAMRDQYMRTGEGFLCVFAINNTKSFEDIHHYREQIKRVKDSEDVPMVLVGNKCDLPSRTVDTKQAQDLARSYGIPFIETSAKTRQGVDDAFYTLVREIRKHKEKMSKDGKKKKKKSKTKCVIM

Row | IC50 (KRAS G12D [1]) [µM] | IC50 (KRAS G12V) [µM] | G12D_exchange (KRAS_G12D exchange assay IC50) (KRAS G12D [1]) | IC50 (KRAS G12D [2]) [µM] | SMILES
1 | 0.1 to 1 | 1 to 5 | – | – | Cc1nc2c(F)c(-c3cc(O)cc4ccccc34)ncc2c2c1cc(CN1CCOC1=O)n2[C@@H]1[C@@H]2CN[C@H]1C2 (relative stereo) [Example 5, 3-((1-((endo)-2-azabicyclo[2.1.1]hexan-5-yl)-6-fluoro-7-(3-hydroxynaphthalen-1-yl)-4-methyl-1H-pyrrolo[3,2-c][1,6]naphthyridin-2-yl)methyl)oxazolidin-2-one]
2 | – | 0.1 to 1 | † | 1 to 5 | COC(=O)CCc1nc2c(N3CC(N(C)C)C3)nc3c(F)c(-c4cc(O)cc5ccccc45)ncc3c2n1[C@@H]1[C@@H]2CN[C@H]1C2 (relative stereo) [Example 11, methyl 3-(1-((endo)-2-azabicyclo[2.1.1]hexan-5-yl)-4-(3-(dimethylamino)azetidin-1-yl)-6-fluoro-7-(3-hydroxynaphthalen-1-yl)-1H-imidazo[4,5-c][1,6]naphthyridin-2-yl)propanoate]
3 | 1 to 5 | – | – | – | Cc1nc2c(nc(N3CC(N(C)C)C3)c3nc(CCC(=O)N(C)C)n([C@@H]4[C@@H]5CN[C@H]4C5)c32)c(C)c1-c1cc(O)cc2ccccc12 (relative stereo) [Example 16, 3-(1-((endo)-2-azabicyclo[2.1.1]hexan-5-yl)-4-(3-(dimethylamino)azetidin-1-yl)-7-(3-hydroxynaphthalen-1-yl)-6,8-dimethyl-1H-imidazo[4,5-c][1,5]naphthyridin-2-yl)-N,N-dimethylpropanamide]
4 | 0.1 to 1 | – | – | – | C[C@H](Oc1nc2c(F)c(-c3c[nH]c4ccc(F)cc34)ncc2c2c1cc(CN1CCOC1=O)n2C1C2CNC1C2)[C@@H]1CCCN1C (single isomer, unassigned) [Example 6a]
5 | – | 0.1 to 1 | † | – | Cc1cc2c(O[C@@H](C)[C@@H]3CCCN3C)nc3c(F)c(N4CCc5ccccc54)ncc3c2n1C1C2CNC1C2 (single isomer, unassigned) [Example 8a]
6 | 0.1 to 1 | 1 to 5 | – | – | Cc1cc2c(O[C@@H](C)[C@@H]3CCCN3C)nc3c(F)c(N4CCc5ccccc54)ncc3c2n1C1C2CNC1C2 (single isomer, unassigned) [Example 8b]
7 | – | ≤ 0.1 | † | – | C[C@H](Oc1nc2c(F)c(-c3cc(O)cc4ccccc34)ncc2c2c1nc(CCC(=O)N(C)C)n2C1C2CNC1C2)[C@@H]1CCCN1C (single isomer, unassigned) [Example 9b]
8 | 1 to 5 | – | – | – | CN(C)C(=O)CCc1nc2c(N3CC(N(C)C)C3)nc3c(F)c(-c4cccc5c4C(C#N)CC5)ncc3c2n1C1C2CNC1C2 (single isomer, unassigned) [Example 10b, 3-(1-((endo)-2-azabicyclo[2.1.1]hexan-5-yl)-7-(3-cyano-2,3-dihydro-1H-inden-4-yl)-4-(3-(dimethylamino)azetidin-1-yl)-6-fluoro-1H-imidazo[4,5-c][1,6]naphthyridin-2-yl)-N,N-dimethylpropanamide]
9 | – | 1 to 5 | † | – | CN(C)C(=O)CCc1nc2c(N3CC(N(C)C)C3)nc3cc(-c4cc(O)cc5ccccc45)c(CCC#N)nc3c2n1C1C2CNC1C2 (single isomer, unassigned) [Example 17a, 3-(1-((endo)-2-azabicyclo[2.1.1]hexan-5-yl)-8-(2-cyanoethyl)-4-(3-(dimethylamino)azetidin-1-yl)-7-(3-hydroxynaphthalen-1-yl)-1H-imidazo[4,5-c][1,5]naphthyridin-2-yl)-N,N-dimethylpropanamide]
10 | – | ≤ 0.1 | † | – | C[C@H](Oc1nc2c(F)c(-c3cccc4c3OCCC4)ncc2c2c1cc(C1CCc3cccc(=O)n31)n2[C@H]1[C@H]2CN[C@@H]1C2)[C@@H]1CCCN1C (single isomer, unassigned) [Example 20a]
11 | – | ≤ 0.1 | † | – | Cc1cc2c(O[C@@H](C)[C@@H]3CCCN3C)nc3c(F)c(-c4cc(O)cc5ccc(F)cc45)ncc3c2n1[C@H]1[C@H]2CN[C@@H]1C2 [Example 18, 4-(1-((1R,4R,5S)-2-Azabicyclo[2.1.1]hexan-5-yl)-6-fluoro-2-methyl-4-((S)-1-((S)-1-methylpyrrolidin-2-yl)ethoxy)-1H-pyrrolo[3,2-c][1,6]naphthyridin-7-yl)-6-fluoronaphthalen-2-ol]
12 | – | ≤ 0.1 | † | – | CC(=O)N1CCC[C@@H]1c1cc2c(O[C@@H](C)[C@@H]3CCCN3C)nc3c(F)c(-c4cccc5scnc45)ncc3c2n1[C@H]1[C@H]2CN[C@@H]1C2 [Example 19, 1-((R)-2-(7-(Benzo[d]thiazol-4-yl)-1-((1R,4R,5S)-2-azabicyclo[2.1.1]hexan-5-yl)-6-fluoro-4-((S)-1-((S)-1-methylpyrrolidin-2-yl)ethoxy)-1H-pyrrolo[3,2-c][1,6]naphthyridin-2-yl)pyrrolidin-1-yl)ethan-1-one]
13 | – | ≤ 0.1 | † | – | C[C@H](Oc1nc2c(F)c(-c3cccc4c3OCCC4)ncc2c2c1cc([C@@H](C)n1ccccc1=O)n2[C@H]1[C@H]2CN[C@@H]1C2)[C@@H]1CCCN1C [Example 21, 1-((R)-1-(1-((1R,4R,5S)-2-Azabicyclo[2.1.1]hexan-5-yl)-7-(chroman-8-yl)-6-fluoro-4-((S)-1-((S)-1-methylpyrrolidin-2-yl)ethoxy)-1H-pyrrolo[3,2-c][1,6]naphthyridin-2-yl)ethyl)pyridin-2(1H)-one]
14 | – | 0.1 to 1 | † | – | COC(=O)N1CCC[C@@H]1c1cc2c(N3CC(C)(N(C)C)C3)nc3c(F)c(-c4cccc(Cl)c4Cl)ncc3c2n1[C@H]1[C@H]2CN[C@@H]1C2 [Example 22, Methyl (R)-2-(1-((1R,4R,5S)-2-azabicyclo[2.1.1]hexan-5-yl)-7-(2,3-dichlorophenyl)-4-(3-(dimethylamino)-3-methylazetidin-1-yl)-6-fluoro-1H-pyrrolo[3,2-c][1,6]naphthyridin-2-yl)pyrrolidine-1-carboxylate]
15 | – | ≤ 0.1 | † | – | COC(=O)N1CCC[C@@H]1c1cc2c(O[C@@H](C)[C@@H]3CCCN3C)nc3c(F)c(-c4cccc(Cl)c4Cl)ncc3c2n1[C@H]1[C@H]2CN[C@@H]1C2 [Example 23, Methyl (R)-2-(1-((1R,4R,5S)-2-azabicyclo[2.1.1]hexan-5-yl)-7-(2,3-dichlorophenyl)-6-fluoro-4-((S)-1-((S)-1-methylpyrrolidin-2-yl)ethoxy)-1H-pyrrolo[3,2-c][1,6]naphthyridin-2-yl)pyrrolidine-1-carboxylate]
16 | – | 5 to 10 | † | – | CNC(=O)c1cccc(-c2nc3c(F)c(-c4cccc(C)c4Cl)ncc3c3c2cc([C@H]2CCCN2C(=O)OC)n3[C@H]2[C@H]3CN[C@@H]2C3)n1 [Example 24, Methyl (R)-2-(1-((1R,4R,5S)-2-azabicyclo[2.1.1]hexan-5-yl)-7-(2-chloro-3-methylphenyl)-6-fluoro-4-(6-(methylcarbamoyl)pyridin-2-yl)-1H-pyrrolo[3,2-c][1,6]naphthyridin-2-yl)pyrrolidine-1-carboxylate]
